# Patent publication US10828515B2, “Compositions containing phenolic compounds having synergistic antioxidant benefits” (L'OREAL, priority 2016, dated 2020)
# Assay: oxygen radical absorbance capacity assay (ORAC)
# Type: biochemical
# Details: individual antioxidant compounds
# Protocol: Synergism was determined by comparing the antioxidant capacities of combinations of components measured by oxygen radical absorbance capacity assay (ORAC) with expected or additive values of the individual compounds. As reflected in the Examples below, the expected ORAC is the combined (additive) antioxidant capacity of each individual antioxidant compound in the association, measured individually and assuming that each is functioning independently. The expected ORAC value of a certain association can be calculated by using the following equation: ORAC (total)=sum of ORAC (compound n, individually) multiplied by the Percentage (compound n, of use in a cosmetic composition), n=1, 2, 3 . . . .
# The ORAC assay measures the oxidative degradation of the fluorescent probe (fluorescein) after being mixed with free radical generators such as azo-initiator compounds (2,2′-Azobis(2-amidinopropane)dihydrochloride, AAPH). Azo-initiators are considered to produce the peroxyl radical by heating, which damages the fluorescent molecule, resulting in the loss of fluorescence. Antioxidants are considered to protect the fluorescent molecule from the oxidative degeneration. By quantifying the decay of fluorescence using a fluorometer, the degree of protection is determined comparing with a standard control antioxidant Trolox. The result is expressed in μMol equivalent of Trolox.
row,Structure (SMILES),ORAC [μmolTolox/g]
1,OC[C@H]1O[C@@H](Oc2cc(O)cc(/C=C/c3ccc(O)cc3)c2)[C@H](O)[C@@H](O)[C@@H]1O [Polydatin],20159
2,O=C(O)[C@H]1O[C@@H](Oc2cc3oc(-c4ccccc4)cc(=O)c3c(O)c2O)[C@H](O)[C@@H](O)[C@@H]1O [baicalin],4759
3,"Cc1c(C)c2c(c(C)c1O)CCC(C)(C(=O)O)O2 (stereo not drawn) [Trolox (VitE), Trolox]",1000
